The values that follow come from patent US10512691B2, “Systems and methods for targeted imaging and ablation of cardiac cells” (THE REGENTS OF THE UNIVERSITY OF MICHIGAN, priority 2012, dated 2019).

Like-named read-outs stand apart in the source and are kept apart here. Peptide text beside a SMILES is read from it.

For series [1], the system named is cardiac tissue. The series can be described thus: CTP transduction of cardiac tissue after peripheral intravenous injection. Format: in vivo. Particulars: 15 minutes post-peripheral intravenous injection in mice. From the text: In some embodiments, nanoparticles comprise cardiac targeting moieties. In some embodiments, targeting moieties target myocytes. In some embodiments, the cardiac targeting moiety is cardiac targeting peptide (CTP) (Zahid et al., PloS one 2010; 5:e12252, herein incorporated by reference in its entirety). This peptide has the sequence […] (SEQ ID NO:1). In some embodiments, variants (e.g., sequence variants) of cardiac targeting peptide that retain the ability to specifically bind to myocytes are utilized. […] Thus, CTP is specific to the heart and cell type specific to myocytes. CTP also works in rat, and sheep and human (Zahid, et. al, supra).

Series [2] relates to cardiac tissue. Particulars: contemplated, citing Zahid et al.; cited from earlier work.
The nature of series [3]: In vivo blood stability of photosensitizer. Particulars: action of blood reducing enzymes. The text has this:
In vivo testing as described above was repeated with an improved CTP-Ce6-8-arm-PEG platform as described above.

For series [4] the following is noted: known, when injected in blood; cited from earlier work.

For `CC(C)C[C@H](NC(=O)[C@H](Cc1c[nH]cn1)NC(=O)[C@H](Cc1c[nH]c2ccccc12)NC(=O)[C@@H]1CCCN1C(=O)[C@H](C)N)C(=O)N[C@@H](CO)C(=O)N[C@@H](CO)C(=O)N[C@@H](CCC(N)=O)C(=O)N[C@@H](Cc1ccc(O)cc1)C(=O)N[C@@H](CO)C(=O)N[C@@H](CCCNC(=N)N)C(=O)N[C@H](C(=O)O)[C@@H](C)O` [CTP] (H-APWHLSSQYSRT-OH; N-terminus and C-terminus assumed), in the series with cardiac tissue [1], the “transduction of cardiac tissue” value is “efficiently and specifically transduce cardiac tissue”; the “uptake in other organs” value is “No other organ showed uptake except kidney glomeruli, limited to the cortex, and rare lung capillaries”. Besides, the “time for CTP to reach the heart” value with cardiac tissue [2] is given as “approximately 15 minutes”.

Turning to `CN(C)c1ccc2nc3ccc(=[N+](C)C)cc-3sc2c1` [methylene blue], the “stability in blood in vivo” value in series [3] is reported as “decreased in vivo”.

Consider chlorin e6 [Ce6], for which the “stability in blood in vivo” value in series [4] is listed as “remain stable when injected in blood”.
